The text below walks through data of patent US7714134B2, “Compounds and use of tetrahydropyridothiophenes” (4SC AG, priority 2004, dated 2010).

In experiment [1] the test system is RKO (RKOp27) human colon adenocarcinoma cells. Briefly: Alamar Blue cell viability assay, anti-proliferative/cytotoxic activity, RKO p27 uninduced. The experiment is classed as cell-based. The following applies: RKOp27, 72 h, proliferating cells, absence of the inducer Ponasterone A, 72 hours incubation. The method in brief: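 RKOp27 colon adenocarcinoma subclones, uninduced, seeded at 4000 cells/well and treated 24 h later with semi-log compound dilutions in DMEM with 10% FCS, in quadruplicate. After 72 h at 37 °C, 5% CO2, viability read by Alamar Blue fluorescence (544/590 nm) relative to untreated cells; IC50 taken from concentration-effect curves.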

The subject of experiment [2] is RKO colon adenocarcinoma cells (RKOp27) arrested by expression of ectopic p27Kip1. Description: Alamar Blue cell viability assay, cell cycle specific mode of action, RKO p27 induced (arrested by Ponasterone A-induced p27Kip1). Format: cell-based. The following applies: Homo sapiens, RKOp27, 72 h, cells arrested by p27Kip1 induced with 10 μM Ponasterone A, 72 hours incubation. The gist of the method: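 RKOp27 cells were seeded at 16000 per well in DMEM/10% FCS with 10 μM Ponasterone A to induce p27Kip1 arrest, then given compound dilutions 24 h later for 72 h at 37 °C. Viability was read by Alamar Blue fluorescence (544/590 nm) as % of untreated cells. Arrested cells were compared with proliferating cells grown without inducer.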
In general terms: The colour change of resazurin is a common sign of viable cells or microbes.

For orientation: pIC50 means −log10 of the IC50, conventionally taken in molar units. A lower pIC50 goes with a high IC50.

pIC50: −log10 of the molar value.

In the case of `N#Cc1c(NC(=O)c2ccccc2)sc2c1CCN(C(=O)OCc1ccccn1)C2` [Compound 62, 3-Cyano-2-[(1-phenyl-methanoyl)-amino]-4,7-dihydro-5H-thieno[2,3-c]pyridine-6-carboxylic acid pyridin-2-ylmethyl ester], the pIC50 in experiment [1] is at least 5.52; in experiment [2], below 4.22.
With `CCOC(=O)N1CCc2c(sc(NC(=O)c3ccc(Cl)cc3)c2C#N)C1` [Compound 47, 2-{[1-(4-Chloro-phenyl)-methanoyl]-amino}-3-cyano-4,7-dihydro-5H-thieno[2,3-c]pyridin-6-carboxylic acid ethyl ester], the pIC50 in experiment [1] is at least 5.52; in experiment [2], below 4.22.
As to `CCOC(=O)N1CCc2c(sc(NC(=O)c3cccc(Cl)c3)c2C#N)C1` [Compound 48, 2-{[1-(3-Chloro-phenyl)-methanoyl]-amino}-3-cyano-4,7-dihydro-5H-thieno[2,3-c]pyridine-6-carboxylic acid ethyl ester], the pIC50 is at least 5.52 in experiment [1] and below 4.22 in experiment [2].
On the same counts, the results for `N#Cc1c(NC(=O)c2ccccc2)sc2c1CCN(C(=O)OCCCN1CCOCC1)C2` [Compound 70, 3-Cyano-2-[(1-phenyl-methanoyl)-amino]-4,7-dihydro-5H-thieno[2,3-c]pyridine-6-carboxylic acid 3-morpholin-4-yl-propyl ester] are at least 5.52 and below 4.22.
For `N#Cc1c(NC(=O)c2ccccc2)sc2c1CCN(C(=O)Cc1ccccn1)C2` [Compound 42, N-[3-Cyano-6-(2-pyridin-2-yl-ethanoyl)-4,5,7-tetrahydro-thieno[2,3-c]pyridin-2-yl]-benzamide], in that order: at least 5.52 and below 4.22.
On to `N#Cc1c(NC(=O)c2ccccc2)sc2c1CCN(C(=O)NCCc1ccccn1)C2` [Compound 99, 3-Cyano-2-[(1-phenyl-methanoyl)-amino]-4,7-dihydro-5H-thieno[2,3-c]pyridine-6-carboxylic acid (2-pyridin-2-yl-ethyl)-amide], for which the pIC50 in experiment [1] was at least 5.52; in experiment [2], below 4.00.
For the compound `N#Cc1c(NC(=O)c2ccccc2)sc2c1CCN(C(=O)OCCO)C2` [Compound 97, 3-Cyano-2-[(1-phenyl-methanoyl)-amino]-4,7-dihydro-5H-thieno[2,3-c]pyridine-6-carboxylic acid 2-hydroxy-ethyl ester], the pIC50 in experiment [1] is at least 5.52; in experiment [2], below 4.00.
Take `CCOC(=O)N1CCc2c(sc(NC(=O)c3ccc([N+](=O)[O-])cc3)c2C#N)C1` [Compound 44, 3-Cyano-2-{[1-(4-nitro-phenyl)-methanoyl]-amino}-4,7-dihydro-5H-thieno[2,3-c]pyridine-6-carboxylic acid ethyl ester]: the pIC50 in experiment [1] is at least 5.52; in experiment [2], below 4.22.
For `CCCC(=O)N1CCc2c(sc(NC(=O)c3ccccc3)c2C#N)C1` [Compound 5], in that order: at least 5.70 and 4.10.
Regarding `COC(=O)CCCC(=O)N1CCc2c(sc(NC(=O)c3ccccc3)c2C#N)C1` [Compound 38, 5-{3-Cyano-2-[(1-phenyl-methanoyl)-amino]-4,7-dihydro-5H-thieno[2,3-c]pyridin-6-yl}-5-oxo-pentanoic acid methyl ester], the pIC50 in experiment [1] was at least 5.52; in experiment [2] it was below 4.22.
`Cc1ncsc1CCOC(=O)N1CCc2c(sc(NC(=O)c3ccccc3)c2C#N)C1` [Compound 17]: the pIC50 is at least 5.70 in experiment [1] and below 4.00 in experiment [2].
On the same counts, the results for `COCCOCCOC(=O)N1CCc2c(sc(NC(=O)c3ccccc3)c2C#N)C1` [Compound 75, 3-Cyano-2-[(1-phenyl-methanoyl)amino]-4,7-dihydro-5H-thieno[2,3-c]pyridine-6-carboxylic acid 2-(2-methoxy-ethoxy)-ethyl ester] are at least 5.52 and below 4.22.
For `CCSC(=O)N1CCc2c(sc(NC(=O)c3ccccc3)c2C#N)C1` [Compound 29, N-(3-Cyano-7-(ethylthiocarbonyl)-4,5,6,7-tetrahvdro-thieno[2,3-c]pyridin-2-yl)-benzamide], in that order: at least 5.70 and below 4.00.
On to `CCOC(=O)N1CCc2c(sc(NC(=O)c3ccc(OC)cc3)c2C#N)C1` [Compound 49, 3-Cyano-2-{[1-(4-methoxy-phenyl)-methanoyl]-amino}-4,7-dihydro-5H-thieno[2,3-c]pyridine-6-carboxylic acid ethyl ester], for which the figures for the negative logarithm of the IC50 (pIC50) in experiment [1] and in experiment [2] were at least 5.52 and below 4.22, respectively.
`CC(=O)N1CCc2c(sc(NC(=O)c3ccccc3)c2C#N)C1` [Compound 20, N-(6-Acetyl-3-cyano-4,5,6,7-tetrahydro-thieno[2,3-c]pyridin-2-yl)-benzamide]: the pIC50 is 5.52 in experiment [1] and below 4.00 in experiment [2].
For `CC(C)(C)OC(=O)N1CCc2c(sc(NC(=O)c3ccccc3)c2C#N)C1` [Compound 1, N-(6-tert.-Butyloxycarbonyl-3-cyano-4,5,6,7-tetrahydro-thieno[2,3-c]pyridin-2-yl)-benzamide], in that order: at least 5.70 and below 4.00.
